Reference: article PMC5059743, “Crystal structures of the human elongation factor eEFSec suggest a non-canonical mechanism for selenocysteine incorporation” (Nature Communications, 2016)
Changes are numbered by the printed parent chain.

Tests used:
Experiment in all cases: isothermal titration calorimetry
Type in all cases: binding
human eEFSec [1] = molecular target: T1, human eEFSec (Homo sapiens, UniProt P57772)
T1 construct: intact full-length, N-terminal 6xHis tag (pET15b, no tag removal described), E. coli Lemo21(DE3); monomer in solution; SeMet form also made for phasing
T1 sequence (P57772 1-596): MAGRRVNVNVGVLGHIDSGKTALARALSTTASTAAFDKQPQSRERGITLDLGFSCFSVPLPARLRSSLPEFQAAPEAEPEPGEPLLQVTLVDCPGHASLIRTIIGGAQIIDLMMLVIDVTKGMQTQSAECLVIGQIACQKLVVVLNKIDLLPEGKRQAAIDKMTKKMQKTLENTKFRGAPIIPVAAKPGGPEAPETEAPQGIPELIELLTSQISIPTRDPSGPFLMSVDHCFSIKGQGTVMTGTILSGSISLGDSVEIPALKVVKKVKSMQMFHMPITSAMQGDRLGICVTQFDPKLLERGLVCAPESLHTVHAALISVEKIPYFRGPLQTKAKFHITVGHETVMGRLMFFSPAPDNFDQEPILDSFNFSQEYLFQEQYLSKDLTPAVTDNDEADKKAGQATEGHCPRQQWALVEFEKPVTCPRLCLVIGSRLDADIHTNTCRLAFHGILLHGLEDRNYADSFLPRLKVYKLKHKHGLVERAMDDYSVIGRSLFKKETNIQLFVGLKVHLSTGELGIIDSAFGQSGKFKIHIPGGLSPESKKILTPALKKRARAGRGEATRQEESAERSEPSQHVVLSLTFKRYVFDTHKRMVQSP

human eEFSec [2] = molecular target: T2, human eEFSec (Homo sapiens, UniProt P57772, H96A)
T2 construct: intact full-length, N-terminal 6xHis tag (pET15b, no tag removal described), E. coli Lemo21(DE3); monomer in solution; SeMet form also made for phasing
T2 sequence (P57772 1-596 H96A): T1 sequence (P57772 1-596) with H96A

human eEFSec [3] = molecular target: T3, human eEFSec (Homo sapiens, UniProt P57772, T48A)
T3 construct: intact full-length, N-terminal 6xHis tag (pET15b, no tag removal described), E. coli Lemo21(DE3); monomer in solution; SeMet form also made for phasing
T3 sequence (P57772 1-596 T48A): T1 sequence (P57772 1-596) with T48A

human eEFSec [4] = molecular target: T4, human eEFSec (Homo sapiens, UniProt P57772, D92A)
T4 construct: intact full-length, N-terminal 6xHis tag (pET15b, no tag removal described), E. coli Lemo21(DE3); monomer in solution; SeMet form also made for phasing
T4 sequence (P57772 1-596 D92A): T1 sequence (P57772 1-596) with D92A

SMILES | Kd (human eEFSec [1]) | Kd (human eEFSec [2]) | Kd (human eEFSec [3]) | Kd (human eEFSec [4])
Nc1nc(O)c2ncn([C@@H]3O[C@H](COP(=O)(O)OP(=O)(O)C[P+]([O-])(O)O)[C@@H](O)[C@H]3O)c2n1 [GDPCP] | 1850 ± 240 nM | – | – | –
Nc1nc2c(ncn2[C@@H]2O[C@H](COP(=O)(O)OP(=O)(O)NP(=O)(O)O)[C@@H](O)[C@H]2O)c(=O)[nH]1 [GDPNP] | 1200 ± 470 nM | – | – | –
Nc1nc2c(ncn2[C@@H]2O[C@H](COP(=O)(O)OP(=O)(O)OP(O)(O)=S)[C@@H](O)[C@H]2O)c(=O)[nH]1 [GTPγS] | 480 ± 60 nM | – | – | –
Nc1nc2c(ncn2[C@@H]2O[C@H](COP(=O)(O)OP(=O)(O)OP(=O)(O)O)[C@@H](O)[C@H]2O)c(=O)[nH]1 [GTP] | 1210 ± 260 nM | 1600 ± 750 nM | 1820 ± 110 nM | 8470 ± 490 nM
Nc1nc2c(ncn2[C@@H]2O[C@H](COP(=O)(O)OP(=O)(O)O)[C@@H](O)[C@H]2O)c(=O)[nH]1 [GDP] | 190 ± 50 nM | 1300 ± 240 nM | 240 ± 50 nM | 1500 ± 130 nM
